Publication PMC13489962, “Small-molecule modulation of β-arrestins” (Nature, 2026)

Key:
βARR1 Y249A = biological target: T1, βARR1 Y249A (Rattus norvegicus, UniProt P29066, Y249A); assay: ITC binding to βARR1 mutant Y249A
T1 construct: βARR1 or βARR2 construct, with their C terminus truncated (at amino acid 393 or 394, respectively); GST (pGEX4T1) (N, cleaved yes); made in house; host or cells: E. coli BL21 (DE3) pLysS
Protocol: The expression and purification of β-arrestins have been described previously[44],[62]–[64]. In brief, E. coli BL21 (DE3) pLysS cells (New England Biolabs: C2527I) carrying pGEX4T1-Rattus norvegicus βARR1 or βARR2 construct, with their C terminus truncated (at amino acid 393 or 394, respectively), were cultured in Terrific Broth (Teknova) medium at 37 °C. After OD600 reached 0.6–0.8, the cells were induced with 0.1 mM isopropyl-β-D-thiogalactopyranoside (IPTG) at 18 °C overnight. Bacteria were collected by centrifugation (4,000 rpm), and cell pellets were resuspended in lysis buffer (20 mM HEPES, pH 8, 150 mM NaCl, 10% glycerol, 1 mM EDTA, 0.2 mM dithiothreitol (DTT), 1 mM phenylmethylsulfonyl fluoride, and 1 mM benzamidine) at 4 °C for 1 h. […] Eluted fractions were analysed by SDS–PAGE, pooled, concentrated using 30 kDa MWCO Amicon Ultra-15 Centrifugal Filter devices, flash-frozen in liquid nitrogen, and stored in aliquots at −80 °C. […] Protein concentrations for each protein were determined by ultraviolet absorption at 280 nm and extinction coefficients estimated using the ExPASy ProtParam tool[67].
ITC measurements were performed on a MicroCal iTC200 system at 25 °C. […] Protein concentrations were determined by spectrophotometry at 280 nm, using extinction coefficients calculated from each protein sequence via the ProtParam program. […]

β-arrestin = assay: Functional assays (not specified); conditions: peer review reply

T1 sequence (P29066 1-393 Y249A): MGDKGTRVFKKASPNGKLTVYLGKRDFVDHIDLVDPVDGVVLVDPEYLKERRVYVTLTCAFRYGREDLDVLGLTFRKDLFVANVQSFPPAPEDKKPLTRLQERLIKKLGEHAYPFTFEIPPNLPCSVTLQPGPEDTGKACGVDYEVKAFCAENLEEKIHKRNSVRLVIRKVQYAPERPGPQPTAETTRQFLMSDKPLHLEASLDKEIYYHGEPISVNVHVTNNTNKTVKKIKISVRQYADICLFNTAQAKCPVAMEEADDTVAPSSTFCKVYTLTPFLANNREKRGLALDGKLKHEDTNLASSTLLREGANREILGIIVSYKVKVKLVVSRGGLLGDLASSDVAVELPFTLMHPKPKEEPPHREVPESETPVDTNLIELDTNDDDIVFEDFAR

SMILES: C=C1C(=O)[C@]23[C@H](O)[C@H]1CC[C@H]2[C@@]12CO[C@]3(O)[C@@H](O)[C@@H]1C(C)(C)CC[C@@H]2O [Cmpd-5, (1S,4aR,5S,6S,6aR,9S,11aS,11bS,14R)-1,5,6,14-tetrahydroxy−4,4-dimethyl-8-methylenedecahydro-1H-6,11b-(epoxymethano)-6a,9-methanocyclohepta[a]naphthalen-7(8H)-one]
- Kd fold over WT, βARR1 Y249A (βARR1 Y249A): 10.6 fold
- Kd (βARR1 Y249A; 25 °C): 3.8 ± 0.9 µM
- binding affinity from functional assays (β-arrestin): 2 to 10 µM
